Experimental data reported in patent publication US20250222120A1, “SYNTHESIS OF NOVEL SMALL MOLECULE CARM1 DEGRADERS, COMPOUNDS FORMED THEREBY, AND PHARMACEUTICAL COMPOSITIONS CONTAINING THEM” (Wisconsin Alumni Research Foundation, priority 2024, published 2025).

Experiments:
Assay type in all cases: cell-based
[1] = system: MDA-MB-231 cells; test: Cell proliferation assay, MDA-MB-231 cells; settings: 0.5 μM, 7 days
Protocol: Cell Proliferation Assay. Cell proliferation was measured by direct cell count via high contrast brightfield microscopy. MDA-MB-231 cells (3×10^3/well) were seeded in 100 μL of DMEM into the wells of a 96-well plate. Cells were treated with either DMSO, TP-064, or 3b and refreshed every two days. The plate was imaged daily for 7 days using the High-Contrast Brightfield Kit for Label-Free Cell Counting (BioTek) on the BioTek Imager.

[2] = target: T1, CARM1 (Homo sapiens, UniProt Q86X55); test: CARM1 degradation by western blot in MCF7 cells; parameters: Cell lysates were collected and the CARM1 levels were detected by western blots; endogenous in cells; host or cells: MCF7
T1 sequence (Q86X55 1-608): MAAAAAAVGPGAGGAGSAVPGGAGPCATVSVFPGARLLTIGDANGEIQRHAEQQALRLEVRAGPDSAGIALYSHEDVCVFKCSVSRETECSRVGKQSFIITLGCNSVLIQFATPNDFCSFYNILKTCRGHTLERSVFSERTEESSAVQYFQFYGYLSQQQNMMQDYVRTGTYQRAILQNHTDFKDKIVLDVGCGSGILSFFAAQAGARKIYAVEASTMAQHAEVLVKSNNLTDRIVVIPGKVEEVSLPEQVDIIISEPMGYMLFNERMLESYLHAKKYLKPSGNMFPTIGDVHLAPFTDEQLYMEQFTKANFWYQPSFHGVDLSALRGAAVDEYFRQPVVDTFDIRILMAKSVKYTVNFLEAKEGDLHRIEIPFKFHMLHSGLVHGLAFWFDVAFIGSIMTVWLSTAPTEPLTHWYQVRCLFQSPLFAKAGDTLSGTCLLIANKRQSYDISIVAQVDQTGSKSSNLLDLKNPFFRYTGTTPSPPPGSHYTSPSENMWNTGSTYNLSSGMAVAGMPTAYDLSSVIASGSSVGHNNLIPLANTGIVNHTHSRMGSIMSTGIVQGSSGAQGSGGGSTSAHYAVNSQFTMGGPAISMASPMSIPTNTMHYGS

[3] = target: T1, CARM1; test: CARM1 degradation by western blot in BT474 cells; settings: ER+/HER2+ BT474 cells, 0.5 μM, after 24 or 48 h
Excerpt: FIGS. 7A-7F. […] Cell lysates were collected and CARM1, methyl-BAF155, total BAF155, methyl-PABP1, and total PABP1 levels were detected by Western blot. […] Cell lysates were collected and CARM1, methyl-BAF155, total BAF155 levels were detected by Western blot. […] Cell proliferation rate normalized to day 0 was plotted. […] Migrated cells were stained with 1% crystal violet and the percentage of migrated cells were plotted. Data mean±s.d. ***. P≤0.001.
Western Blot Assay. Cells were harvested and washed with Dulbecco's phosphate-buffered saline (PBS), then lysed with 1×RIPA lysis buffer (50 mM Tris pH 7.5, 150 mM NaCl, 1% NP-40, 0.5% sodium deoxycholate, and 0.1% sodium dodecyl sulfate) supplemented with 1 mM phenylmethylsulfonyl fluoride, 10 μg/mL aprotinin, 1 μM leupeptin, and 10 μg/mL pepstatin on ice for 20 min. The supernatant was collected after spinning down at 15000 RPM at 4 degrees Celsius for 10 min. The concentration of whole lysates was quantified using a Bradford assay. 50-75 μg of cell lysates was boiled in 4× Laemmli Loading Dye and boiled at 100 degrees Celsius for 10 min. 25 μg were run in 8% SDS-PAGE gels and transferred to nitrocellulose membranes. Blots were blocked in 5% skim milk in PBST [PBS and 0.1% Tween 20] for 45 min, then incubated with primary antibodies at 4 degrees Celsius overnight. […]

With CNCCN1CCC(c2cc(CN(C)C(=O)c3cccc(Oc4ccc(OCC(=O)N5CCC(CN6CCC(CN7CCN(CC(=O)N[C@H](C(=O)N8C[C@H](O)C[C@H]8C(=O)N[C@@H](C)c8ccc(-c9scnc9C)cc8)C(C)(C)C)CC7)CC6)CC5)cc4)c3)ccn2)CC1 [Compound 3b, (2S,4R)-1-((S)-3,3-dimethyl-2-(2-(4-((1-((1-(2-(4-(3-(methyl((2-(1-(2-(methylamino)ethyl)piperidin-4-yl)pyridin-4-yl)methyl)carbamoyl)phenoxy)phenoxy)acetyl)piperidin-4-yl)methyl)piperidin-4-yl)methyl)piperazin-1-yl)acetamido)butanoyl)-4-hydroxy-N—((S)-1-(4-(4-methylthiazol-5-yl)phenyl)ethyl)pyrrolidine-2-carboxamide] the Cell proliferation [1] was “not to inhibit cell proliferation”, the Dmax ([2]; MCF7, read-out: Dmax of CARM1 degradation, MCF7 cells, 24 h, western blot, three independent experiments) was greater than 95% and the “Time after exposure at which CARM1 degradation was observed” value ([2]; MCF7 cells, 0.5 μM, time course) was 2 h. The “CARM1 degradation over time course” value ([2]; MCF7 cells, 0.5 μM, up to 48 h) was “degradation sustained and further maximized over the course of 48 h”, the “CARM1 degradation activity, rigid linker compared with 2e” value ([2]; MCF7 cells, 0.1, 0.5, 1.0 and 10.0 μM, 24 hours, compared with 2e at 0.5 μM) was “significantly improved CARM1 degradation activity” and the CARM1 degradation [3] was “effectively degraded”.
